Experimental data reported in patent US5380761A, “Transdermal compositions” (Chinoin Gyogyszer- ES Vegyeszeti Termekek Gyara RT., priority 1991, dated 1995).

Test system: MAO-A
Experiment: MAO-A inhibition in domestic pig brain nucleus free homogenate (14C-5-HT substrate)
Format: in vivo
Settings: p. os 10 mg, 96 h
Experimental: In further experiments we determined in domestic pigs The MAO activity in the brain and the platelet MAO-B activity.
The experiments were carried out on female (big white) domestic pigs, weighing 25-30 kg. The pigs were caged separately during the experiments, and the same food was supplied, which was used formerly.
Blood samples were taken for the determination of MAO-B activity at: 0, 3, 6, 24, 48, 72 and 96 h. At 96 h after blood sampling the pigs were killed and the MAO-B and MAO-A activity was determined in their dissected brain.
The times of blood sampling were at: 0, 3, 6, 24 and 48 h. The transdermal preparations were removed at 24 h. […] The pigs were killed at 48 h and MAO-A and MAO-B activity of the brain was determined.
Blood samples were taken at: 0, 3, 6, 24, 48 and 72 h. The patches were removed at 48 h and the whole procedure described at group 2 was accomplished.
MAO activity was measured radiometrically according to the methods of Wurtman and Axelrod (Biochem. Pharmacol. 12. 1414-19; 1963) with a slight modification (K. Magyar in: Monoamine Oxidases and their Selective Inhibition. Ed.: K. Magyar, Pergamon Press, Akademiai Kiado, Budapest 11-21; 1980).

C#CCN(C)[C@H](C)Cc1ccccc1 [(-)-Deprenyl]
inhibition of MAO-activity (%) as compared to the control, brain, 14C-5-HT: 20.14 ± 6.0%
